Literature values, collected in patent US11779591B2, “Compositions containing decitabine, 5azacytidine and tetrahydrouridine and uses thereof” (Epidestiny, Inc., priority 2015, dated 2023).

Conditions: rapid deamination by CDA

Nc1ccn([C@@H]2O[C@H](CO)[C@@H](O)[C@@H]2[18F])c(=O)n1 [FAC, 1-(2′-deoxy-2′-[18F]-fluoro-β-D-arabinofuranosyl)cytosine]
distribution into solid tissues such as the liver and kidneys: did not adequately distribute into solid tissues
